Target: Urease (Type III, from Canavalia ensiformis) (Canavalia ensiformis, UniProt P07374)
Assay: ESI-MS (MRM) assay of urea depletion by purified urease, […] min pre-incubation with inhibitor
Type: biochemical

Chain of Urease (Type III, from Canavalia ensiformis) (P07374 whole entry): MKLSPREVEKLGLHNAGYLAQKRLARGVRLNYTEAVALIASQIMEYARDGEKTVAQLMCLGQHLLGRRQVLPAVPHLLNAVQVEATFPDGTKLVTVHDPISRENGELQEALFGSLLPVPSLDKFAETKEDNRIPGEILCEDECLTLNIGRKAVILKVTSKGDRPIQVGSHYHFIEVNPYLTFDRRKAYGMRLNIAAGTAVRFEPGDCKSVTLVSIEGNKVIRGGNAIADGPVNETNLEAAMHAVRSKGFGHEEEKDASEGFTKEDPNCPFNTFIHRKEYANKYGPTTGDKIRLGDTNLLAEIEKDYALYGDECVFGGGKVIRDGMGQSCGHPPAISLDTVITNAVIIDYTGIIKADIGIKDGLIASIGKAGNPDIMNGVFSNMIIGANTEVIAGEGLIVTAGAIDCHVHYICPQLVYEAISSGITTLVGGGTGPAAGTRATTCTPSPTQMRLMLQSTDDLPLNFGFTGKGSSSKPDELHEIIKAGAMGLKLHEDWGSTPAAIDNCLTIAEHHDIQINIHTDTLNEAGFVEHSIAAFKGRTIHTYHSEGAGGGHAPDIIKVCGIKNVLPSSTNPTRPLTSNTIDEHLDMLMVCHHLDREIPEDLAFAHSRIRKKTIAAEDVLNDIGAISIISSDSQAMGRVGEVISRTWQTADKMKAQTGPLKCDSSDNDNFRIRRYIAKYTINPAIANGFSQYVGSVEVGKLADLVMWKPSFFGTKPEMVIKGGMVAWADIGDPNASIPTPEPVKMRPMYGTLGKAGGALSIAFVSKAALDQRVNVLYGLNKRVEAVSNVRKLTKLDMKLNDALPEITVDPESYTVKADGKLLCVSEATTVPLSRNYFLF

`CC(=O)NO` [AHA, acetohydroxamic acid] showed an IC50 of 4.3 µM.
